This is an account of results in patent US7135466B2 (Kirin Beer Kabushiki Kaisha, priority 1999, dated 2006).

In the assay the target is T1, PDGF-Ra (Homo sapiens, UniProt P16234).
T1 construct: host or cells: G-292 human osteosarcoma cells
Description: Inhibitory activity against PDGF-Ra phosphorylation by PDGF-AA stimulation using G292. In kind it is cell-based. The note with it: for IC50: > means inhibition at indicated concentration not more than 50%, < and << not less than 50%, read-out: PDGF (E) IC50; for inhibition at 0.1 µM: G292, figure within parentheses in >100( ), at 100 nM, read-out: PDGF (E) inhibition (%) at 100 nM. The protocol: Measurement of Inhibitory Activity Against PDGF-Ra Phosphorylation by PDGF-AA Stimulation Using G292
G-292 human osteosarcoma cells (Dainippon Pharmaceutical Co. Ltd.) were cultured in a DMEM medium (Dainippon Pharmaceutical Co. Ltd.) containing 10% FBS within an incubator containing 5% carbon dioxide until 80% confluent, and the cells were planted at 3×10^4 cells per well in 96-well flat-bottom plates in the same medium containing 0.1% FBS. After cultivation at 37° C. overnight, a solution of a test compound in dimethyl sulfoxide was added to each well, and a reaction was allowed to proceed at 37° C. for one hr.
After the reaction of the test compound, PDGF-AA (Upstate) was added to 50 ng/ml, and the cells were stimulated at 37° C. for 5 min. Thereafter, the cells were solubilized and shaken at room temperature for 20 min.
This solubilized cell solution was transferred to a 96-well plate coated with aniti-phosphotyrosine antibody PY-20, and a reaction was allowed to proceed at 4° C. overnight. Anti-PDGF-Ra (c-20) (Santa Cruz) was added as a primary antibody, and a reaction was allowed to proceed for one hr. GAR (Anti-rabbit Ig, horseradish peroxidase, Amersham) was then added as a secondary antibody, and a reaction was allowed to proceed for one hr. Color development was carried out using a color development kit for peroxidase (Sumitomo Bakelite Co., Ltd.), and the absorbance was measured at 450 nm.

Some results are limits rather than exact numbers.

T1 sequence (P16234 24-1089): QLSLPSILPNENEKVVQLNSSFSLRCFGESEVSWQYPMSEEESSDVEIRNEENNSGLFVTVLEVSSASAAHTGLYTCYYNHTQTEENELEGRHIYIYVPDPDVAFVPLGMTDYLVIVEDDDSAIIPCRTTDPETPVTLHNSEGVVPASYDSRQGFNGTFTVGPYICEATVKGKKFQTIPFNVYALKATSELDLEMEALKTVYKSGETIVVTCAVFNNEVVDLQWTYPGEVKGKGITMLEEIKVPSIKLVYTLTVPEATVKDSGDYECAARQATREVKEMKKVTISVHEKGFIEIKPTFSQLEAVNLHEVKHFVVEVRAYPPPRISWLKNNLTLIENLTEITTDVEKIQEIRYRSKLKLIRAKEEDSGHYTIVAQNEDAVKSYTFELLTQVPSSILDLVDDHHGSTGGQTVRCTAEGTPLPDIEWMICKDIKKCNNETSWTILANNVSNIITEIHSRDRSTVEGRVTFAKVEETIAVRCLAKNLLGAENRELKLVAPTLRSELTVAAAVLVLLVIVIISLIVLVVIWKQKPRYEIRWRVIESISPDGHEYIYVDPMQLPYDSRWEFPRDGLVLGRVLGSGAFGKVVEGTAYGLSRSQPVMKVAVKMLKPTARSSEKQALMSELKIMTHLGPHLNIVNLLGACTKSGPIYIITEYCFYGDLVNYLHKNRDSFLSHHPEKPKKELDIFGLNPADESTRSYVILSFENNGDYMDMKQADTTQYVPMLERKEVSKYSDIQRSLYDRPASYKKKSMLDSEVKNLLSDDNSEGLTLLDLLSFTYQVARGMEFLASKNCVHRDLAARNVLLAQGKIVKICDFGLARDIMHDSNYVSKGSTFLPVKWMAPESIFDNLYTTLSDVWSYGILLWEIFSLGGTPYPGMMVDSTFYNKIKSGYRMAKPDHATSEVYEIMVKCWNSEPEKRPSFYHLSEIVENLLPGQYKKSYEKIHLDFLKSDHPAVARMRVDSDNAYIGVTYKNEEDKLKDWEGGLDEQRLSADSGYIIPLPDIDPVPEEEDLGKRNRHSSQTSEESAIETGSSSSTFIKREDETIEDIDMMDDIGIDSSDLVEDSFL

As usually defined, the IC50 is the concentration that inhibits the measured activity by half. Broadly, the inhibition is the share of the control response that was lost under treatment. As to `CCN(C(=O)OCc1ccccc1Cl)c1ccc(Oc2ncnc3cc(OC)c(OC)cc23)cc1Cl` [Example 487, 2-Chlorobenzyl N-{2-chloro-4-[(6,7-dimethoxy-4-quinazolinyl)oxy]phenyl}-N-ethylcarbamate], the 50% inhibitory concentration (IC50) is over 0.1 µM and the inhibition at 0.1 µM was 31%.

Take `CCCC(CCC)OC(=O)N(CC)c1ccc(Oc2ncnc3cc(OC)c(OC)cc23)cc1Cl` [Example 488, 1-Propylbutyl N-{2-chloro-4-[(6,7-dimethoxy-4-quinazolinyl)oxy]phenyl}-N-ethylcarbamate]: the IC50 turned out to be 0.098 µM.

For the compound `CCCC(CCC)OC(=O)N(C)c1ccc(Oc2ncnc3cc(OC)c(OC)cc23)cc1` [Example 493, 1-Propylbutyl N-{4-[(6,7-dimethoxy-4-quinazolinyl)oxy]phenyl}-N-methylcarbamate], the IC50 is 0.039 µM.

For the compound `C#CCC(CC)OC(=O)N(C)c1ccc(Oc2ncnc3cc(OC)c(OC)cc23)cc1` (stereo not drawn) [Example 495, 1-Ethyl-3-butynyl N-{4-[(6,7-dimethoxy-4-quinazolinyl)oxy]phenyl}-N-methylcarbamate], the half-inhibitory concentration (IC50) was found to be 0.065 µM.

For `COc1cc2nccc(Oc3ccc(NC(=S)NCCN4CCCCC4)c(C)c3C)c2cc1OC` [Example 512, N-{4-[(6,7-Dimethoxy-4-quinolyl)oxy]-2,3-dimethylphenyl}-N′-(2-piperidinylethyl)thiourea], the half-maximal inhibitory concentration (IC50) is 0.029 µM.

`COc1cc2ncnc(Oc3ccc(NC(=S)NC4CCN(Cc5ccccc5)CC4)cc3)c2cc1OC` [Example 518, N-{4-[(6,7-Dimethoxy-4-quinazolinyl)oxy]phenyl}-N′-[4-(1-benzylpiperidinyl)]thiourea]: the concentration for half-maximal inhibition (IC50) was over 0.1 µM and the inhibition at 0.1 µM amounted to 17%.

As for `COc1cc2ncnc(Oc3ccc(NC(=S)NCCNC(C)=O)cc3)c2cc1OC` [Example 519], the IC50 is over 0.1 µM and the inhibition at 0.1 µM turned out to be 22%.

For the compound `COc1cc2nccc(Oc3ccc(NC(=S)NNC4CCCCC4)c(C)c3C)c2cc1OC` [Example 520, N-{4-[(6,7-Dimethoxy-4-quinolyl)oxy]-2,3-dimethylphenyl}-N′-(N-cyclohexylamino)thiourea], the half-inhibitory concentration (IC50) is over 0.1 µM and the inhibition at 0.1 µM worked out at 43%.

For `COc1cc2nccc(Oc3ccc(NC(=S)NN4CCCCC4)c(C)c3C)c2cc1OC` [Example 521, N-{4-[(6,7-Dimethoxy-4-quinolyl)oxy]-2,3-dimethylphenyl}-N′-(1-piperidinyl)thiourea], the concentration for half-maximal inhibition (IC50) is over 0.1 µM.

Turning to `COc1cc2nccc(Oc3cc(C)c(NC(=S)NN4CCCCC4)cc3C)c2cc1OC` [Example 522, N-{4-[(6,7-Dimethoxy-4-quinolyl)oxy]-2,5-dimethylphenyl}-N′-(1-piperidinyl)thiourea], the concentration for half-maximal inhibition (IC50) is over 0.1 µM.

Consider `CCN(CC)CCCNC(=S)Nc1cc(C)c(Oc2ccnc3cc(OC)c(OC)cc23)cc1C` [Example 551, N-{4-[(6,7-Dimethoxy-4-quinolyl)oxy]-2,5-dimethylphenyl}-N′-(3-diethylaminopropyl)thiourea], for which the half-maximal inhibitory concentration (IC50) is over 0.1 µM and the inhibition at 0.1 µM was 19%.

`COc1cc2nccc(Oc3cc(C)c(NC(=S)NCCCN4CCCCC4C)cc3C)c2cc1OC` (stereo not drawn) [Example 554, N-{4-[(6,7-Dimethoxy-4-quinolyl)oxy]-2,5-dimethylphenyl}-N′-[3-(2-methylpiperidinyl)propyl]thiourea]: the IC50 was over 0.1 µM and the inhibition at 0.1 µM was found to be 14%.

As for `COc1cc2nccc(Oc3ccc(NC(=O)NC4CCN(CC5CCCCC5)C4)cc3)c2cc1OC` (stereo not drawn) [Example 585, N-[1-(Cyclohexylmethyl)tetrahydro-1H-3-pyrrolyl]-N′-{4-[(6,7-dimethoxy-4-quinolyl)oxy]phenyl}urea], the concentration for half-maximal inhibition (IC50) was over 0.1 µM and the inhibition at 0.1 µM was 32%.

In the case of `CCN(CC)C(C)CNC(=S)Nc1ccc(Oc2ccnc3cc(OC)c(OC)cc23)cc1` (stereo not drawn) [Example 588, N-{4-[(6,7-Dimethoxy-4-quinolyl)oxy]phenyl}-N′-(2-diethylaminopropyl)thiourea], the IC50 was determined as 0.036 µM.
